# Results as given in patent publication US20070197557A1, “Fungicidal mixtures” (Basf Aktiengesellschaft, priority 2004, published 2007).
# System: Erysiphe [syn. Blumeria] graminis forma specialis. tritici
# Assay: activity against mildew of wheat, 5 day protective application
# Assay type: in vivo
# Conditions: evaluated 7 days after inoculation, Abbot's formula
# Method: 1% by weight of the emulsifier Uniperol® EL (wetting agent having emulsifying and dispersant action based on ethoxylated alkylphenols) was added to this solution, and the mixture was diluted with water to the desired concentration.
# Use example—activity against mildew of wheat caused by Erysiphe [syn. Blumeria] graminis forma specialis. tritici, 5 day protective application
# Theor emulsion had been prepared as described above. […] The test plants were then placed in a greenhouse at temperatures between 20 and 24° C. and at 60 to 90% relative atmospheric humidity. After 7 days, the extent of mildew development was determined visually in % infection of the total leaf area
# The visually determined percentages of infected leaf areas were converted into efficacies in % of the untreated control:
# The efficacy (E) is calculated as follows using Abbot's formula: E=(1-α/β)·100 • α corresponds to the fungal infection of the treated plants in % and • β corresponds to the fungal infection of the untreated (control) plants in %
# An efficacy of 0 means that the infection level of the treated plants corresponds to that of the untreated control plants; an efficacy of 100 means that the treated plants were not infected.
# [1] = 12.5 ppm active compound in the spray liquor
smiles,measurement,setting,value
"CC1CCN(c2c(-c3c(F)cc(F)cc3F)c(Cl)nc3ncnn23)CC1 [I, 5-chloro-7-(4-methylpiperidin-1-yl)-6-(2,4,6-trifluorophenyl)-[1,2,4]triazolo[1,5-a]pyrimidine]",Efficacy in % of the untreated control,[1],9%
same,Efficacy in % of the untreated control,50 ppm active compound in the spray liquor,35%
"CCCOc1nc2ccc(I)cc2c(=O)n1CCC [II.1-1, proquinazid]",Efficacy in % of the untreated control,[1],67%
same,Efficacy in % of the untreated control,25 ppm active compound in the spray liquor,80%
